For four compounds, EC50, Ki and Emax results are on record in patent US20230265151A1, “GIP/GLP1 CO-AGONIST COMPOUNDS” (priority 2020, published 2023).

In one assay the target is T1, hGIPR (Homo sapiens, UniProt P48546).
T1 construct: expressed in transfected cells
T1 sequence (P48546 22-466): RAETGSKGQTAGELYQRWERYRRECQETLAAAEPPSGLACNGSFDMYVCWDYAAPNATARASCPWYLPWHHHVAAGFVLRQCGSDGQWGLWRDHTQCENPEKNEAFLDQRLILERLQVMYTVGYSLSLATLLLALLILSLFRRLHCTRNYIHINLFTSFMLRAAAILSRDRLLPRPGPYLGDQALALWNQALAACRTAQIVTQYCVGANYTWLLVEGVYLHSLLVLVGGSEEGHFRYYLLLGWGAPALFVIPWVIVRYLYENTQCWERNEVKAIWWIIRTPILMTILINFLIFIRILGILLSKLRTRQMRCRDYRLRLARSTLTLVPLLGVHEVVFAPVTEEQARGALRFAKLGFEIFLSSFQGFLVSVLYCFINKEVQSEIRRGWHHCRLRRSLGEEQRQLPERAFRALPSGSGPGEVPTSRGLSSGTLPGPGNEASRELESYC
Put plainly: Functional cAMP formation (HTRF) in HEK-293 clonal cells expressing hGIPR, 0.1% bovine casein, without or with 1.0% human serum albumin. The format is cell-based. To be noted: for EC50: geometric mean; for Emax: percent of maximal response to GIP(1-42)NH2. The gist of the method:
(§1)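 Cells were stimulated with peptide for 30 min at 37° C, then lysed in buffer carrying cAMP-d2 and anti-cAMP Eu3+-cryptate for a competitive HTRF read after at least 60 min at room temperature. The 665/620 nm ratio was converted to nM cAMP against a standard curve.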
On the technique in general: Cyclic AMP is a second messenger, typically raised through Gs and lowered through Gi signalling.

In the next assay the target is T2, hGCGR (Homo sapiens, UniProt P47871).
T2 construct: expressed in transfected cells
Put plainly: Functional cAMP formation (HTRF) in HEK-293 clonal cells expressing hGCGR, 0.1% bovine casein, without or with 1.0% human serum albumin. Format: cell-based. The gist of the method: as §1

Assay [1] concerns the target T3, human GLP-1 receptor (hGLP-1R) (Homo sapiens, UniProt P43220).
T3 construct: expressed in transfected cells; crude membranes
Put plainly: [125I]-GLP-1 binding, SPA with membranes of HEK293 cells expressing hGLP-1R.

Another assay addresses hGLP-1R (Homo sapiens, UniProt P43220). Put plainly: Functional cAMP formation (HTRF) in HEK-293 clonal cells expressing hGLP-1R, 0.1% bovine casein, without or with 1.0% human serum albumin. Format: cell-based. The arrangement: expressed in transfected cells. To be noted: for Emax: percent of maximal response to GLP-1(7-36)NH2; for EC50: geometric mean. An outline of the steps:
as §1

Setting [2] is: human GLP-1R, geometric mean (SEM, n), read-out: Binding Affinity Ki, nM (SEM, n) hGLP-1R.

Read-outs that look alike come from different tables or passages of the source.

T2 sequence (P47871 26-477): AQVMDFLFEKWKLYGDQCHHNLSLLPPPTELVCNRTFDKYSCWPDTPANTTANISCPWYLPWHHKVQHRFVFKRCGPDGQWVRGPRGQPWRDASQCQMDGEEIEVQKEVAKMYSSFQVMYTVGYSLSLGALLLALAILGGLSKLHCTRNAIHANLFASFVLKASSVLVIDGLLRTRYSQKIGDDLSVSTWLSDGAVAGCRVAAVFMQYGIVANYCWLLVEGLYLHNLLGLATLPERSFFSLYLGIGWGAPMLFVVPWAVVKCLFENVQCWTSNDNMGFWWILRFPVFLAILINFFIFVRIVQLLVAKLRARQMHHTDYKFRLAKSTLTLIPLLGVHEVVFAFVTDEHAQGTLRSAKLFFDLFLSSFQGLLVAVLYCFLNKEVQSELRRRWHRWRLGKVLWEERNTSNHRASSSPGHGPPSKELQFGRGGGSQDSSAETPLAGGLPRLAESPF
T3 sequence (P43220 24-463): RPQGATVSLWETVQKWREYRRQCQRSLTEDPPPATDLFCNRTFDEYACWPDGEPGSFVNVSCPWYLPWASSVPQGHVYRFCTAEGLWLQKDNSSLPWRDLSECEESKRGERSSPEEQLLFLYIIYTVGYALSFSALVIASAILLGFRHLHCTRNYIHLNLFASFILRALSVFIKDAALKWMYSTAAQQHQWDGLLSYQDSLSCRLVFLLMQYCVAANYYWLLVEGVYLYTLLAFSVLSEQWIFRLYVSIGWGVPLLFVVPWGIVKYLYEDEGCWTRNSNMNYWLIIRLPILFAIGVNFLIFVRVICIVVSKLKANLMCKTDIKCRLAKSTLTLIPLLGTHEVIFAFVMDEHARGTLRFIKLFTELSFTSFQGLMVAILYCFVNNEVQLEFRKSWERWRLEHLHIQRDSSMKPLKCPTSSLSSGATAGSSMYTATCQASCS
Sequence of hGLP-1R (P43220 24-463): as above

As to `CC[C@H](C)[C@H](NC(=O)[C@H](CC(C)C)NC(=O)[C@](C)(Cc1ccc(O)cc1)NC(=O)[C@H](CCCCNC(=O)CCOCCOCCOCCOCCNC(=O)CC[C@H](NC(=O)CCCCCCCCCCCCC(=O)O)C(=O)O)NC(=O)[C@@H](NC(=O)[C@H](Cc1ccccc1)NC(=O)[C@H](CCCN)NC(=O)C(C)(C)NC(=O)[C@H](CCC(N)=O)NC(=O)[C@H](C)NC(=O)[C@H](CCC(N)=O)NC(=O)[C@H](CCCN)NC(=O)[C@H](CC(=O)O)NC(=O)[C@H](CC(C)C)NC(=O)[C@](C)(CC(C)C)NC(=O)[C@@H](NC(=O)C(C)(C)NC(=O)[C@H](Cc1ccncc1)NC(=O)[C@H](CC(=O)O)NC(=O)[C@H](CO)NC(=O)[C@@H](NC(=O)[C@](C)(Cc1ccccc1F)NC(=O)[C@@H](NC(=O)CNC(=O)[C@H](CCC(=O)O)NC(=O)C(C)(C)NC(=O)[C@@H](N)Cc1ccc(O)cc1)[C@@H](C)O)[C@@H](C)O)[C@@H](C)CC)[C@@H](C)CC)C(=O)N[C@@H](CCCCNC(=O)CCOCCOCCOCCOCCNC(=O)CC[C@H](NC(=O)CCCCCCCCCCCCC(=O)O)C(=O)O)C(=O)NCC(=O)NCC(=O)N1CCC[C@H]1C(=O)N[C@@H](CO)C(=O)N[C@@H](CO)C(=O)NCC(=O)N[C@@H](C)C(=O)N1CCC[C@H]1C(=O)N1CCC[C@H]1C(=O)N1CCC[C@H]1C(=O)N[C@@H](CO)C(N)=O` [Example 457], the concentration for a half-maximal effect (EC50) on hGIPR (cAMP, 37° C., 0.1% bovine casein (no human serum albumin), read-out: hGIPR EC50, nM (SEM, n)) was 0.0106 nM; at hGCGR (cAMP, 37° C., 0.1% bovine casein (no human serum albumin), geometric mean, read-out: hGCGR EC50, nM (SEM, n)), > 9950 nM; on hGCGR (cAMP, 37° C., 0.1% bovine casein and 1.0% human serum albumin, geometric mean (SEM, n), read-out: hGCGR EC50, nM (SEM, n)), > 9950 nM; at hGLP-1R (cAMP, 37° C., 0.1% bovine casein (no human serum albumin), read-out: hGLP-1R EC50, nM (SEM, n)) it was 0.185 nM. Also, the inhibition constant Ki in assay [1] (setting [2]) was found to be 0.252 nM. Further, the Emax on hGLP-1R (HEK293, cAMP, 37° C., 0.1% bovine casein, arithmetic mean, read-out: hGLP-1R Emax, % ± SEM) came out at 119%.

As to `CCCCCCCCCCCCCCCC(=O)N[C@@H](CCC(=O)NCCOCCOCC(=O)NCCOCCOCC(=O)NCCCC[C@H](NC(=O)[C@H](CCCN)NC(=O)[C@H](CC(=O)O)NC(=O)[C@H](CC(C)C)NC(=O)[C@](C)(CC(C)C)NC(=O)[C@@H](NC(=O)[C@H](CO)NC(=O)[C@H](Cc1ccncc1)NC(=O)[C@H](CC(=O)O)NC(=O)[C@H](CO)NC(=O)[C@@H](NC(=O)[C@](C)(Cc1ccccc1F)NC(=O)[C@@H](NC(=O)CNC(=O)[C@H](CCC(=O)O)NC(=O)C(C)(C)NC(=O)[C@@H](N)Cc1ccc(O)cc1)[C@@H](C)O)[C@@H](C)O)[C@@H](C)CC)C(=O)N[C@@H](C)C(=O)N[C@@H](CCC(N)=O)C(=O)NC(C)(C)C(=O)N[C@@H](CCC(=O)O)C(=O)N[C@@H](Cc1ccccc1)C(=O)N[C@H](C(=O)N[C@@H](CCCCNC(=O)COCCOCCNC(=O)COCCOCCNC(=O)CC[C@H](NC(=O)CCCCCCCCCCCCCCC)C(=O)O)C(=O)N[C@@](C)(Cc1ccc(O)cc1)C(=O)N[C@@H](CC(C)C)C(=O)N[C@H](C(=O)N[C@@H](CCC(=O)O)C(=O)NCC(=O)NCC(=O)N1CCC[C@H]1C(=O)N[C@@H](CO)C(=O)N[C@@H](CO)C(=O)NCC(=O)N[C@@H](C)C(=O)N1CCC[C@H]1C(=O)N1CCC[C@H]1C(=O)N1CCC[C@H]1C(=O)N[C@@H](CO)C(N)=O)[C@@H](C)CC)[C@@H](C)CC)C(=O)O` [Example 22], on hGIPR (HEK293, read-out: hGIPR Emax, % ± SEM, 0.1% bovine casein and 1.0% human serum albumin, 37° C.), the Emax turned out to be 93.4 ± 0.775%. In addition, the half-maximal effective concentration (EC50) on hGIPR (hGIPR EC50, nM (SEM, n), 0.1% bovine casein and 1.0% human serum albumin, 37° C.) is 0.533 nM; at hGCGR (hGCGR EC50, nM (SEM, n), 0.1% bovine casein and 1.0% human serum albumin, 37° C., geometric mean), > 9950 nM; at hGCGR (hGCGR EC50, nM (SEM, n), cAMP, incubated at 37° C., 0.1% bovine casein (no human serum albumin), geometric mean) it was > 9950 nM; on hGLP-1R (hGLP-1R EC50, nM (SEM, n), 0.1% bovine casein and 1.0% human serum albumin, 37° C.) it was 1.5 nM. Further, in assay [1], affinity was put at a Ki of 0.301 nM.

For `CCCCCCCCCCCC(=O)N[C@@H](CCC(=O)NCCOCCOCC(=O)NCCOCCOCC(=O)NCCCC[C@H](NC(=O)[C@H](CCCN)NC(=O)[C@H](CC(=O)O)NC(=O)[C@H](CC(C)C)NC(=O)[C@](C)(CC(C)C)NC(=O)[C@@H](NC(=O)[C@H](CO)NC(=O)[C@H](Cc1ccncc1)NC(=O)[C@H](CC(=O)O)NC(=O)[C@H](CO)NC(=O)[C@@H](NC(=O)[C@](C)(Cc1ccccc1F)NC(=O)[C@@H](NC(=O)CNC(=O)[C@H](CCC(=O)O)NC(=O)C(C)(C)NC(=O)[C@@H](N)Cc1ccc(O)cc1)[C@@H](C)O)[C@@H](C)O)[C@@H](C)CC)C(=O)N[C@@H](C)C(=O)N[C@@H](CCC(N)=O)C(=O)NC(C)(C)C(=O)N[C@@H](CCCCNC(=O)COCCOCCNC(=O)COCCOCCNC(=O)CC[C@H](NC(=O)CCCCCCCCCCC)C(=O)O)C(=O)N[C@@H](Cc1ccccc1)C(=O)N[C@H](C(=O)N[C@H](CCC(=O)O)C(=O)N[C@@](C)(Cc1ccc(O)cc1)C(=O)N[C@@H](CC(C)C)C(=O)N[C@H](C(=O)N[C@@H](CCC(=O)O)C(=O)NCC(=O)NCC(=O)N1CCC[C@H]1C(=O)N[C@@H](CO)C(=O)N[C@@H](CO)C(=O)NCC(=O)N[C@@H](C)C(=O)N1CCC[C@H]1C(=O)N1CCC[C@H]1C(=O)N1CCC[C@H]1C(=O)N[C@@H](CO)C(N)=O)[C@@H](C)CC)[C@@H](C)CC)C(=O)O` [Example 137], the EC50 on hGIPR (0.1% bovine casein and 1.0% human serum albumin, 37° C., read-out: hGIPR EC50, nM (SEM, n)) is 0.728 nM; on hGIPR (cAMP, incubated at 37° C., 0.1% bovine casein (no human serum albumin), read-out: hGIPR EC50, nM (SEM, n)), 0.0116 nM; on hGCGR (0.1% bovine casein and 1.0% human serum albumin, 37° C., geometric mean, read-out: hGCGR EC50, nM (SEM, n)), > 9950 nM; on hGCGR (cAMP, incubated at 37° C., 0.1% bovine casein (no human serum albumin), geometric mean, read-out: hGCGR EC50, nM (SEM, n)), > 9950 nM; on hGLP-1R (0.1% bovine casein and 1.0% human serum albumin, 37° C., read-out: hGLP-1R EC50, nM (SEM, n)), 5.02 nM; on hGLP-1R (cAMP, incubated at 37° C., 0.1% bovine casein (no human serum albumin), read-out: hGLP-1R EC50, nM (SEM, n)), 0.134 nM. At hGIPR (HEK293, 0.1% bovine casein and 1.0% human serum albumin, 37° C., read-out: hGIPR Emax, % ± SEM), the Emax was determined as 90.3 ± 0.387%. Moreover, the Ki in assay [1] (setting [2]) is 0.25 nM.

As for `CC[C@H](C)[C@H](NC(=O)[C@H](CC(C)C)NC(=O)[C@](C)(Cc1ccc(O)cc1)NC(=O)[C@H](CCCCNC(=O)COCCOCCNC(=O)[C@H]1CC[C@H](CNC(=O)CC[C@H](NC(=O)CCCCCCCCCOc2ccc(C(=O)O)cc2)C(=O)O)CC1)NC(=O)[C@@H](NC(=O)[C@H](Cc1ccccc1)NC(=O)[C@H](CCCN)NC(=O)C(C)(C)NC(=O)[C@H](CCC(N)=O)NC(=O)[C@H](C)NC(=O)[C@H](CCC(N)=O)NC(=O)[C@H](CCCN)NC(=O)[C@H](CC(=O)O)NC(=O)[C@H](CC(C)C)NC(=O)[C@](C)(CC(C)C)NC(=O)[C@@H](NC(=O)C(C)(C)NC(=O)[C@H](Cc1ccncc1)NC(=O)[C@H](CC(=O)O)NC(=O)[C@H](CO)NC(=O)[C@@H](NC(=O)[C@](C)(Cc1ccccc1F)NC(=O)[C@@H](NC(=O)CNC(=O)[C@H](CCC(=O)O)NC(=O)C(C)(C)NC(=O)[C@@H](N)Cc1ccc(O)cc1)[C@@H](C)O)[C@@H](C)O)[C@@H](C)CC)[C@@H](C)CC)C(=O)N[C@@H](CCCCNC(=O)COCCOCCNC(=O)[C@H]1CC[C@H](CNC(=O)CC[C@H](NC(=O)CCCCCCCCCOc2ccc(C(=O)O)cc2)C(=O)O)CC1)C(=O)NCC(=O)NCC(=O)N1CCC[C@H]1C(=O)N[C@@H](CO)C(=O)N[C@@H](CO)C(=O)NCC(=O)N[C@@H](C)C(=O)N1CCC[C@H]1C(=O)N1CCC[C@H]1C(=O)N1CCC[C@H]1C(=O)N[C@@H](CO)C(N)=O` [Example 473], the Emax at hGIPR (HEK293, read-out: hGIPR Emax, % ± SEM, cAMP, 37° C., 0.1% bovine casein and 1.0% human serum albumin) is 92.8%; on hGLP-1R (HEK293, read-out: hGLP-1R Emax, % ± SEM, cAMP, 37° C., 0.1% bovine casein and 1.0% human serum albumin), 114%; on hGLP-1R (HEK293, read-out: hGLP-1R Emax, % ± SEM, cAMP, 37° C., 0.1% bovine casein, arithmetic mean), 118%. For the same compound, the EC50 at hGIPR (hGIPR EC50, nM (SEM, n), cAMP, 37° C., 0.1% bovine casein (no human serum albumin)) is 0.0163 nM; on hGCGR (hGCGR EC50, nM (SEM, n), cAMP, 37° C., 0.1% bovine casein (no human serum albumin), geometric mean), > 9950 nM; on hGCGR (hGCGR EC50, nM (SEM, n), cAMP, 37° C., 0.1% bovine casein and 1.0% human serum albumin, geometric mean (SEM, n)), > 9950 nM; on hGLP-1R (hGLP-1R EC50, nM (SEM, n), cAMP, 37° C., 0.1% bovine casein (no human serum albumin)), 0.192 nM. Also, in assay [1], the Ki amounted to 0.169 nM.

In general, EC50 refers to the concentration giving half of the maximal effect. What is called Ki is the equilibrium dissociation constant of an inhibitor or competing ligand from its target. In general, Emax refers to the greatest response seen or fitted, relative to the assay's reference.
